Experimental data from PMC2688680, “Identification, expression and characterisation of a Babesia bovis hexose transporter” (Molecular and Biochemical Parasitology, 2008).

Tests used:
[1] = target: T1, B. bovis hexose transporter 1 (BboHT1) (Babesia bovis, UniProt B0LKY8); test: competition with […]D-glucose uptake in Xenopus oocytes at […] ([…] reduction); assay type: cell-based
T1 construct: full-length, 472 amino acid residues, Israel isolate, expressed in Xenopus laevis oocytes

[2] = target: T1, B. bovis hexose transporter 1 (BboHT1); test: inhibition of […]D-glucose uptake in Xenopus oocytes expressing BboHT1; assay type: cell-based
[3] = target: T1, B. bovis hexose transporter 1 (BboHT1); test: radiotracer D-fructose uptake in Xenopus oocytes versus water-injected controls; assay type: cell-based
[4] = substrate: OC[C@H]1OC(O)[C@H](O)[C@@H](O)[C@@H]1O; test: radiotracer D-glucose influx kinetics in Xenopus oocytes (Km); assay type: cell-based, Babesia bovis; details: hydroxyl positions at O-4 and O-6 important for ligand binding

OC[C@H]1OC(O)C[C@@H](O)[C@@H]1O (stereo partly drawn) [2-DOG, 2-deoxy-D-glucose]
competition with [14C]D-glucose uptake in Xenopus oocytes at 10 mM (>50% reducti) [1]: 1-Deoxy-D-glucose, 2-deoxy-D-glucose, D-mannose (the 2-epimer of glucose), 3-deoxy-D-glucose, and 3-O-methyl-D-glucose all reduced D-glucose uptake via BboHT1

C=CCCCCCCCCCO[C@H]1[C@H](O)[C@@H](CO)OC(O)[C@@H]1O (stereo partly drawn) [compound 3361, 3-O-(undec-10-en)-yl-D-glucose]
Ki [2]: 4.1 ± 0.9 µM

OC[C@H]1OC[C@H](O)[C@@H](O)[C@@H]1O [1-DOG, 1-deoxy-D-glucose]
competition with [14C]D-glucose uptake in Xenopus oocytes at 10 mM (>50% reducti) [1]: 1-Deoxy-D-glucose, 2-deoxy-D-glucose, D-mannose (the 2-epimer of glucose), 3-deoxy-D-glucose, and 3-O-methyl-D-glucose all reduced D-glucose uptake via BboHT1

OC[C@H]1OC(O)(CO)[C@@H](O)[C@@H]1O (stereo partly drawn) [D-fructose]
radiotracer D-fructose uptake in Xenopus oocytes versus water-injected controls [3]: D-Fructose uptake also increased in oocytes expressing BboHT1 when compared with uptake in water-injected controls

B1: B. bovis hexose transporter 1 (BboHT1) (Babesia bovis) (protein)
chain: MRSYFVYALALGALVAFNFGLNTVSFVASREFAVMDLGWCAGQDKLYECSRASTYSDIIAAGTFIGGAVGSLLIGYFAKFGRRKGMLIIHIINVIGSCMSTSASCFTMFLLGRLIAGVSVGASGVVAIYLSEICTNESRGKFGIVYPLFICIGQFLMVAWQLLHGRILGADNKVVTMDDLKTFDKFVWRMAQFWPVVFSIIAVVIMVFIVTDDTPYVLLNEGKEEEARSVISKLHGEENADAITAELKADIEAQKANSDKLSLLEALKVAQYRKVIFICCGLGIVQQFSGINIFVANASTLFISIMGRTVIANVMGLVGILCLMVTMISLSFFIEKFGRKTLLLAGIFVSSVFMVPAVIIKLAAGKDAKWAEYIMVTGCMGFMVGFAIGLGGVMWLYLAEAMGAEYKDAGFGLATCANWLFAAIVVMTSGMLIKFNENFTYALYAGFGVLGFVYVALLIKETKGIPLGQAYA
notes: full-length, 472 amino acid residues, Israel isolate, expressed in Xenopus laevis oocytes
Km [4]: 840 ± 540 µM
